Measured values from ChEMBL document CHEMBL4507264, “Data for DCP probe BAY-7598” (2021).

Experiments:
[1] = target: Homeodomain-interacting protein kinase 4 (Homo sapiens) (UniProt Q8NE63); conditions: Compound concentration 1000.0 nM
[2] = target: Fibroblast growth factor receptor 2 (Homo sapiens) (UniProt P21802); conditions: Compound concentration 1000.0 nM
[3] = target: GABA-A receptor; anion channel (Rattus norvegicus) (UniProt O09028+P15431+P18506+P18508+P19969+P20236+P23574+P23576+P28471+P28473+P30191+P62813+P63079+P63138+Q91ZM7+Q9ES14); conditions: Compound concentration 10.0 uM
[4] = target: Serine/threonine-protein kinase Nek2 (Homo sapiens) (UniProt P51955); conditions: Compound concentration 1000.0 nM
[5] = target: Dual specificity protein kinase CLK4 (Homo sapiens) (UniProt Q9HAZ1); conditions: Compound concentration 1000.0 nM
[6] = target: Ephrin type-A receptor 4 (Homo sapiens) (UniProt P54764); conditions: Compound concentration 1000.0 nM
Ephrin type-A receptor 4 (Homo sapiens), sequence (P54764 whole entry): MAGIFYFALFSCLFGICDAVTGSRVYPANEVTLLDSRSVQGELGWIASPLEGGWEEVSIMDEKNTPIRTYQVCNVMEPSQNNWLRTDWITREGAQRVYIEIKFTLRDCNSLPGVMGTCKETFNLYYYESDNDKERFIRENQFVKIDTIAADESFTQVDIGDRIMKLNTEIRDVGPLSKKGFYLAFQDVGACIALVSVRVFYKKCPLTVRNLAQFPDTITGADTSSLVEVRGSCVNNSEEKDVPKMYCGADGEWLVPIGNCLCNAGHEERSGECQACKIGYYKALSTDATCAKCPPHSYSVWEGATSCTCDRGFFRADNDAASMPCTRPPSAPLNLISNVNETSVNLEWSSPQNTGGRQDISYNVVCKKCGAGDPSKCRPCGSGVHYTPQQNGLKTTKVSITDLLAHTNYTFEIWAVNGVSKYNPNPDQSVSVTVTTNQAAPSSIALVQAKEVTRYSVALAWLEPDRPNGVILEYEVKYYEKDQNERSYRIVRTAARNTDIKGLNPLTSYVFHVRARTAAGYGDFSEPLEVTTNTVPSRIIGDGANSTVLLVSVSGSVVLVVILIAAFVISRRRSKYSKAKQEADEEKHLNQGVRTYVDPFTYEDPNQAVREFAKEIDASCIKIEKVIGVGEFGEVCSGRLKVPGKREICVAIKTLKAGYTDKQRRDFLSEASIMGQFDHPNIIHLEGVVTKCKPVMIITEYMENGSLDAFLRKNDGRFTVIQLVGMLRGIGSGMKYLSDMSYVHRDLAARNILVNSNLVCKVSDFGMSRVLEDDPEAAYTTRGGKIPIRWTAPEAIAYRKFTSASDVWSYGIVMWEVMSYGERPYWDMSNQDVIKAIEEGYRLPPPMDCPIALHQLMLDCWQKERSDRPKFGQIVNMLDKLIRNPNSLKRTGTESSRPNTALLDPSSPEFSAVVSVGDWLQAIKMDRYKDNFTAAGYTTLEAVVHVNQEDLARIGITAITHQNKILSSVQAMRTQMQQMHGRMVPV

[7] = test system: Receptor-type tyrosine-protein kinase FLT3 (Homo sapiens), P36888 [N841I]; conditions: Compound concentration 1000.0 nM
[8] = target: Receptor-interacting serine/threonine-protein kinase 4 (Homo sapiens) (UniProt P57078); conditions: Compound concentration 1000.0 nM
[9] = target: Serine/threonine-protein kinase 4 (Homo sapiens) (UniProt Q13043); conditions: Compound concentration 1000.0 nM
[10] = target: Serine/threonine-protein kinase Nek3 (Homo sapiens) (UniProt P51956); conditions: Compound concentration 1000.0 nM
Serine/threonine-protein kinase Nek3 (Homo sapiens), sequence (P51956 whole entry): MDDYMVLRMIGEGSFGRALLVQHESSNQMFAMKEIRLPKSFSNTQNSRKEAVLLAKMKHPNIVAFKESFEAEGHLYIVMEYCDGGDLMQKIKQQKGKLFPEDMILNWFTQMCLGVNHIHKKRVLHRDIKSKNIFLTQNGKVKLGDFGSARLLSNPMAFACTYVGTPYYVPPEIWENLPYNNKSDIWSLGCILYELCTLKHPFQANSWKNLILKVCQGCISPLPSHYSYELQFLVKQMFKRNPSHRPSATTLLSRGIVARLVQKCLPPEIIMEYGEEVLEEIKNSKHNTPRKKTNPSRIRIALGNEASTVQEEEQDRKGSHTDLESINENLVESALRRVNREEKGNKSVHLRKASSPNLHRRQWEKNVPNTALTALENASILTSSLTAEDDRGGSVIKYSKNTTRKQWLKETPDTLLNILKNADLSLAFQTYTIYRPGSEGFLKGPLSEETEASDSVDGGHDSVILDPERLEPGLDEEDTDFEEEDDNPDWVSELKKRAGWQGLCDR

[11] = target: Serine/threonine-protein kinase Chk1 (Homo sapiens) (UniProt O14757); conditions: Compound concentration 1000.0 nM
[12] = target: Tyrosine-protein kinase JAK1 (Homo sapiens) (UniProt P23458); conditions: Compound concentration 1000.0 nM
[13] = target: Ephrin type-A receptor 6 (Homo sapiens) (UniProt Q9UF33); conditions: Compound concentration 1000.0 nM
Ephrin type-A receptor 6 (Homo sapiens), sequence (Q9UF33 whole entry): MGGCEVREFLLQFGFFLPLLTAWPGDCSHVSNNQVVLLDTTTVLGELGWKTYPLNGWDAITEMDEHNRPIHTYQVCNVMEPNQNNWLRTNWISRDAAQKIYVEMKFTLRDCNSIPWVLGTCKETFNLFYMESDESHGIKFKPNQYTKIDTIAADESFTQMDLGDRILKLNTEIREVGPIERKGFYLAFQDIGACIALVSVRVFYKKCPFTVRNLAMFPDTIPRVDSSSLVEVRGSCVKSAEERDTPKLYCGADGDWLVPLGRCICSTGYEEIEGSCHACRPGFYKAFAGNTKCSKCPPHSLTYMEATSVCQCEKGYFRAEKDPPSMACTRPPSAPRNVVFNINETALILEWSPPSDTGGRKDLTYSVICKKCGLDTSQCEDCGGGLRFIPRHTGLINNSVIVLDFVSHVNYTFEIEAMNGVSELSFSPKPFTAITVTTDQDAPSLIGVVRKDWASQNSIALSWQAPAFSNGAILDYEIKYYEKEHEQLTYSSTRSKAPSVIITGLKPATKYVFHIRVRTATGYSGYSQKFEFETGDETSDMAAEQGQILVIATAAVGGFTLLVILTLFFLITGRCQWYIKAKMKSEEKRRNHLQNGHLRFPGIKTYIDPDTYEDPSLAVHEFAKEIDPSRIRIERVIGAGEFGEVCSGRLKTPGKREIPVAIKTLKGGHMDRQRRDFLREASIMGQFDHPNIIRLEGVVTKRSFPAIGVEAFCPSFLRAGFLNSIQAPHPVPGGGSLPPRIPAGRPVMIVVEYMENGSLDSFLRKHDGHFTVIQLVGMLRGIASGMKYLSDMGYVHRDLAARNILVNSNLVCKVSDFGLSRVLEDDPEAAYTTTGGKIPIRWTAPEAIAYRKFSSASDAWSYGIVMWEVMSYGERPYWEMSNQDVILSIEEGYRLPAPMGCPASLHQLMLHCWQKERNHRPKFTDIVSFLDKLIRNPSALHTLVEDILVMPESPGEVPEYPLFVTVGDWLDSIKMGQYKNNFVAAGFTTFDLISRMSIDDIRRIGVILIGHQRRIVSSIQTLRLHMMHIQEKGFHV

[14] = target: Death-associated protein kinase 1 (Homo sapiens) (UniProt P53355); conditions: Compound concentration 1000.0 nM
[15] = target: Calcium-dependent protein kinase 1 (Plasmodium falciparum) (UniProt P62344); conditions: Compound concentration 1000.0 nM
[16] = target: T1, Alpha-1D adrenergic receptor (Homo sapiens) (UniProt P25100); conditions: Compound concentration 10.0 uM
T1 sequence (whole entry): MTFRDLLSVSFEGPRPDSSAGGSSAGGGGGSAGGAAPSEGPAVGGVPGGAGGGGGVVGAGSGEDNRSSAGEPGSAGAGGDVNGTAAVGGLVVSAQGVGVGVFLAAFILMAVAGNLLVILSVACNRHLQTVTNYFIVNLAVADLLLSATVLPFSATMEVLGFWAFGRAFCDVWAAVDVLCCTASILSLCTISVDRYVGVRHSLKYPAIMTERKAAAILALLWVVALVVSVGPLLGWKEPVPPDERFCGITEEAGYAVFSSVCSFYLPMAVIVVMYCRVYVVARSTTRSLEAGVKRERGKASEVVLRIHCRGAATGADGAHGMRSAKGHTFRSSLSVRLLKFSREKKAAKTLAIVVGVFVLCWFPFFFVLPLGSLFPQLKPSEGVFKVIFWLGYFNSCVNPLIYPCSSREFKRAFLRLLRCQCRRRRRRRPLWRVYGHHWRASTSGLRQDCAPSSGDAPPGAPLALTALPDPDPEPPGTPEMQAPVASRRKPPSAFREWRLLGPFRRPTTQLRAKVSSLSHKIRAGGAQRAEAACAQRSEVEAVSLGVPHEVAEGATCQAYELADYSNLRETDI

[17] = target: Mitogen-activated protein kinase kinase kinase kinase 2 (Homo sapiens) (UniProt Q12851); conditions: Compound concentration 1000.0 nM
[18] = target: Cyclin-dependent kinase 8 (Homo sapiens) (UniProt P49336); conditions: Compound concentration 1000.0 nM
[19] = test system: Receptor-type tyrosine-protein kinase FLT3 (Homo sapiens), P36888 [D835Y]; conditions: Compound concentration 1000.0 nM
[20] = target: Mitotic checkpoint serine/threonine-protein kinase BUB1 (Homo sapiens) (UniProt O43683); conditions: Compound concentration 1000.0 nM
Mitotic checkpoint serine/threonine-protein kinase BUB1 (Homo sapiens), sequence (O43683 whole entry, looked up): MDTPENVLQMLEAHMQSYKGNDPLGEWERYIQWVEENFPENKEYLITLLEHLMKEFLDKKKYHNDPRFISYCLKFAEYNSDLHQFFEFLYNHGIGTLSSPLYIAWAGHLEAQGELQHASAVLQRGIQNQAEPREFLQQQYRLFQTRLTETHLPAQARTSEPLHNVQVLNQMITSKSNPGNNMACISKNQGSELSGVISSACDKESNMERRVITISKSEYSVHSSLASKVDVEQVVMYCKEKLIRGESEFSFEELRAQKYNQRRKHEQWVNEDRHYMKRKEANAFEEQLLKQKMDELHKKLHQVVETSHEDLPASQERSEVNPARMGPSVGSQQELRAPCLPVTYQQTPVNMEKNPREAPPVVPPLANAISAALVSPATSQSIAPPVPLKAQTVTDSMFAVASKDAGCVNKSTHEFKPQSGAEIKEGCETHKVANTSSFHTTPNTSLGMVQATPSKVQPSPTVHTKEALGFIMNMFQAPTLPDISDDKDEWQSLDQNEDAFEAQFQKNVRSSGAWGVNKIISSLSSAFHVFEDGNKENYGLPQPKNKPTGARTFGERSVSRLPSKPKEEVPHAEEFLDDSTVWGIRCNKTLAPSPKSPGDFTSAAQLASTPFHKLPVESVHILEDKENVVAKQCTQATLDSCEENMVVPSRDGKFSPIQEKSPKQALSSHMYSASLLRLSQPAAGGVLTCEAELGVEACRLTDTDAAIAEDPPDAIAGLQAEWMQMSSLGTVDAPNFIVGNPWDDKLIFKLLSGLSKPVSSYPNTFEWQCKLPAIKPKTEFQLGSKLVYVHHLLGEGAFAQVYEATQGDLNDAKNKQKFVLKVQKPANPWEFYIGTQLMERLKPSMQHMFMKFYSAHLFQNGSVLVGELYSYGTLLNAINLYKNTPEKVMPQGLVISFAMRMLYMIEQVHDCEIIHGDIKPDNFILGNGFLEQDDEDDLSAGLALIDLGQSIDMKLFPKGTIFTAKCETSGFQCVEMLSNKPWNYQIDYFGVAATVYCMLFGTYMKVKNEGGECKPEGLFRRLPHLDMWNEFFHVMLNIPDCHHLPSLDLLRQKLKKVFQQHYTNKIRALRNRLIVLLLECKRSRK

[21] = target: Mitogen-activated protein kinase 15 (Homo sapiens) (UniProt Q8TD08); conditions: Compound concentration 1000.0 nM
[22] = target: Cyclin-dependent kinase 19 (Homo sapiens) (UniProt Q9BWU1); conditions: Compound concentration 1000.0 nM
Cyclin-dependent kinase 19 (Homo sapiens), sequence (Q9BWU1 whole entry): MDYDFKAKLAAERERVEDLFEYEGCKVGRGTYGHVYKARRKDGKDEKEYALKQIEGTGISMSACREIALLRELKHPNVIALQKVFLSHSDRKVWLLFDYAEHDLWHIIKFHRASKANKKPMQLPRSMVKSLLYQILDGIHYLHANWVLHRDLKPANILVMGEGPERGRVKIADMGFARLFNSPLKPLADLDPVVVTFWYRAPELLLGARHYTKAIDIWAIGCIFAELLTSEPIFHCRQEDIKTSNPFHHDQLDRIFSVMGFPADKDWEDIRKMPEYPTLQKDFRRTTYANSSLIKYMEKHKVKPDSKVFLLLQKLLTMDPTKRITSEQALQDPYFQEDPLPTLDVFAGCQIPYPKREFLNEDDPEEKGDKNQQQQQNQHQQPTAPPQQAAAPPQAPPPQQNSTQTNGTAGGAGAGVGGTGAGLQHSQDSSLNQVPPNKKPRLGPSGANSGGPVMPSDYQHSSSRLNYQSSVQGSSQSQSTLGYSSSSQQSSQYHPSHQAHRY

[23] = target: G protein-coupled receptor kinase 3 (Homo sapiens) (UniProt P35626); conditions: Compound concentration 1000.0 nM
[24] = target: Tyrosine-protein kinase HCK (Homo sapiens) (UniProt P08631); conditions: Compound concentration 1000.0 nM
[25] = target: Phosphatidylinositol 3-kinase C2 domain-containing subunit gamma (Homo sapiens) (UniProt O75747); conditions: Compound concentration 1000.0 nM
[26] = test system: Fibroblast growth factor receptor 3 (Homo sapiens), P22607 [G697C]; conditions: Compound concentration 1000.0 nM
[27] = target: Serine/threonine-protein kinase OSR1 (Homo sapiens) (UniProt O95747); conditions: Compound concentration 1000.0 nM
[28] = target: Serine/threonine-protein kinase PAK 3 (Homo sapiens) (UniProt O75914); conditions: Compound concentration 1000.0 nM
[29] = test system: Mast/stem cell growth factor receptor Kit (Homo sapiens), P10721 [V559D]; conditions: Compound concentration 1000.0 nM
[30] = target: Alpha-2A adrenergic receptor (Homo sapiens) (UniProt P08913); conditions: Compound concentration 10.0 uM
[31] = target: Tyrosine-protein kinase receptor UFO (Homo sapiens) (UniProt P30530); conditions: Compound concentration 1000.0 nM
[32] = target: Ribosomal protein S6 kinase alpha-3 (Homo sapiens) (UniProt P51812); conditions: Compound concentration 1000.0 nM
Ribosomal protein S6 kinase alpha-3 (Homo sapiens), sequence (P51812 whole entry): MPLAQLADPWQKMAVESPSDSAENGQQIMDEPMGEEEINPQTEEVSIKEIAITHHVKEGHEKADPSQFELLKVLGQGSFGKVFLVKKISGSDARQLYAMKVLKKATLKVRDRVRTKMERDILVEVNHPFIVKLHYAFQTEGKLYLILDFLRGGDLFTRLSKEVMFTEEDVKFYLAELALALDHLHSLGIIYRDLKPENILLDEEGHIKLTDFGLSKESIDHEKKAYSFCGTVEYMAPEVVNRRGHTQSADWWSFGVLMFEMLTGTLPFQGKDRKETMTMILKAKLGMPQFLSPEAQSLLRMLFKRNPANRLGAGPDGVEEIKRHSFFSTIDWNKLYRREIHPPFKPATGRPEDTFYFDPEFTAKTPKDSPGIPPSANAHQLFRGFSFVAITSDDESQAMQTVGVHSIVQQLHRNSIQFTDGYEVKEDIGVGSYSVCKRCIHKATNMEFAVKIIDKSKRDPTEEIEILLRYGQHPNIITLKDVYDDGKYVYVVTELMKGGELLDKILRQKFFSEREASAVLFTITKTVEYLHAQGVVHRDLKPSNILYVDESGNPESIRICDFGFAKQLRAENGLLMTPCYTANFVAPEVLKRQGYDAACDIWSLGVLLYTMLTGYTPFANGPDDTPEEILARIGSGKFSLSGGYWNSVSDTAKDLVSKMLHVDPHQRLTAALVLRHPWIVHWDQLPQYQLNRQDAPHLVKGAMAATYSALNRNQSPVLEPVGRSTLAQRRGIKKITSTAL

[33] = target: Serine/threonine-protein kinase PLK3 (Homo sapiens) (UniProt Q9H4B4); conditions: Compound concentration 1000.0 nM
[34] = target: Ephrin type-A receptor 1 (Homo sapiens) (UniProt P21709); conditions: Compound concentration 1000.0 nM
[35] = target: Bone morphogenetic protein receptor type-1A (Homo sapiens) (UniProt P36894); conditions: Compound concentration 1000.0 nM
[36] = test system: Phosphatidylinositol 4,5-bisphosphate 3-kinase catalytic subunit alpha isoform (Homo sapiens), P42336 [E542K]; conditions: Compound concentration 1000.0 nM

O=C(O)[C@@H]1[C@@H](Cn2nnc3ccccc3c2=O)CC[C@H]1C(=O)c1ccc(OCCC2CCOCC2)cc1 [BAY-694]
inactive: residual activity [1] 100% | residual activity [2] 100% | inhibition [3] 13.1% | residual activity [4] 100% | residual activity [5] 100% | residual activity [6] 92% | residual activity [7] 98% | residual activity [8] 81% | residual activity [9] 98% | residual activity [10] 83% | residual activity [11] 100% | residual activity [12] 79% | residual activity [13] 97% | residual activity [14] 100% | residual activity [15] 100% | inhibition [16] 0.08% | residual activity [17] 97% | residual activity [18] 91% | residual activity [19] 100% | residual activity [20] 73% | residual activity [21] 100% | residual activity [22] 100% | residual activity [23] 100% | residual activity [24] 100% | residual activity [25] 95% | residual activity [26] 92% | residual activity [27] 100% | residual activity [28] 99% | residual activity [29] 100% | inhibition [30] 5.09% | residual activity [31] 100% | residual activity [32] 100% | residual activity [33] 87% | residual activity [34] 100% | residual activity [35] 100% | residual activity [36] 62%

O=C(O)[C@H]1[C@H](Cn2nnc3ccccc3c2=O)CC[C@@H]1C(=O)c1ccc(OCCC2CCOCC2)cc1 [BAY-7598]
inactive: residual activity [1] 100% | residual activity [2] 100% | inhibition [3] 6.48% | residual activity [4] 100% | residual activity [5] 100% | residual activity [6] 90% | residual activity [7] 85% | residual activity [8] 80% | residual activity [9] 98% | residual activity [10] 86% | residual activity [11] 100% | residual activity [12] 88% | residual activity [13] 85% | residual activity [14] 89% | residual activity [15] 100% | inhibition [16] 0.59% | residual activity [17] 100% | residual activity [18] 100% | residual activity [19] 96% | residual activity [20] 85% | residual activity [21] 100% | residual activity [22] 100% | residual activity [23] 100% | residual activity [24] 70% | residual activity [25] 99% | residual activity [26] 100% | residual activity [27] 77% | residual activity [28] 86% | residual activity [29] 100% | inhibition [30] -5.14% | residual activity [31] 100% | residual activity [32] 81% | residual activity [33] 100% | residual activity [34] 100% | residual activity [35] 61% | residual activity [36] 71%
